Publication PMC11579541, “In vitro, in vivo, and in silico approaches for evaluating the preclinical DMPK profiles of ammoxetine, a novel chiral serotonin and norepinephrine reuptake inhibitor” (Frontiers in Pharmacology, 2024)

Legend:
[1] = PPB assay by ultrafiltration, dog plasma; type: in vitro ADME, beagle dogs; conditions: beagle
Experimental: The PPB of ammoxetine was determined using the ultrafiltration method. Triplicate samples of rat, dog, or human plasma were spiked with ammoxetine at three final concentrations (50, 150, and 450 ng/mL). The spiked plasma samples were then incubated in a 37°C air-bath shaker for 1 h until equilibrium was reached. After incubation, 400 μL of the plasma samples were transferred to pre-saturated ultrafiltration devices. These devices were subsequently centrifuged at 13,800×g and 20°C for 20 min to separate the unbound ammoxetine. 100 μL of the test samples were taken and mixed with 100 μL of the IS, L-phencynonate (50 ng/mL), and 300 μL of methanol. Following centrifugation at 13,800×g for 10 min, the supernatants were used to determine the total and free concentrations of ammoxetine in the plasma (C t , C f ) using an LC-MS-MS method. The PPB rate (%) of ammoxetine was calculated by dividing (C t −C f ) by C t .

CYP 1A2 = target: T1, CYP 1A2 (Homo sapiens, UniProt P05177); assay: Phenotyping with recombinant human CYP 1A2; type: in vitro ADME; design: purchased BD (Woburn, USA); conditions: 5 μmol/L, 25 pmol/mL CYP, 1 h
T1 sequence (P05177 1-516): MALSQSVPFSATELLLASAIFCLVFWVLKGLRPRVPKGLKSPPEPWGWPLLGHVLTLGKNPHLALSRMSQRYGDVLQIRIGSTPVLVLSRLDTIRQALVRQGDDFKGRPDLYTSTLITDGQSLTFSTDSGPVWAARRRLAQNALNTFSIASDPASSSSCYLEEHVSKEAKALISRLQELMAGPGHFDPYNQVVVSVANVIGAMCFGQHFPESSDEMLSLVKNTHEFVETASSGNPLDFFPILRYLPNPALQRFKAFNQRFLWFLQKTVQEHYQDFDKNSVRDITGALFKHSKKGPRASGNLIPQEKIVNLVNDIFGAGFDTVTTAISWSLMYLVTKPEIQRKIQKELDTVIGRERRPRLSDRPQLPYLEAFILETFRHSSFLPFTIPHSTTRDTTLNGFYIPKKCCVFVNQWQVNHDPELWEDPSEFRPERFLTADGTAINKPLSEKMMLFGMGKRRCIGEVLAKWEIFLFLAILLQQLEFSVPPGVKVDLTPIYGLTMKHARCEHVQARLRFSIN
Experimental: (§1) Ammoxetine (final concentration 5 μmol/L) was incubated with recombinant human CYP 3A4, CYP 1A2, CYP 2C9, CYP 2C19, and CYP 2D6 (final concentration 25 pmol/mL) in a 5 mmol/L K2HPO4 buffer at pH 7.4. The incubations were performed in quintuplicate. NADPH (final concentration 1 mmol/L) was added to initiate the incubation process. The mixture was then incubated at 37°C for 1 h. To stop the reaction, 200 μL of ice-cold acetonitrile/methanol (1:1, v/v) containing 500 ng/mL of L-phencynonate (IS) was added. The samples were vortexed for 2 min and centrifuged at 13,800×g and 4°C for 10 min. The supernatants obtained were analyzed using an LC-MS-MS method. To establish appropriate controls, zero-time controls and blank controls in the absence of NADPH were set up in parallel.

[2] = Stability of ammoxetine in dog plasma (method validation); type: in vitro ADME
Experimental: LC-MS-MS methods were developed and validated to accurately quantify ammoxetine in rat and beagle dog plasma, as well as in rat tissues, urine, feces, and bile. The methods involved direct protein precipitation using methanol, providing a straightforward and rapid sample preparation process with high extraction recovery rates (absolute recoveries >85% in all matrices). […] The precision and accuracy of the plasma methods were evaluated through intra-day and inter-day analyses, yielding satisfactory results. Additionally, stability tests conducted in rat and beagle dog plasma met the analytical requirements for determination. Furthermore, the majority of the analytes met the necessary criteria for matrix effects when quantifying ammoxetine in biological samples. The developed methods are well-suited for determining ammoxetine concentrations in rat and beagle dog biological samples, enabling in vivo studies of this compound. They provide specific and highly sensitive quantification, facilitating investigations into the drug’s behavior in vivo. Detailed results regarding the establishment and validation of these analytical methods can be found in Supplementary Data Sheet 2.

CYP 2C9 = CYP 2C9 (Homo sapiens, UniProt P11712); assay: Phenotyping with recombinant human CYP 2C9; type: in vitro ADME; design: purchased BD (Woburn, USA); conditions: 5 μmol/L, 25 pmol/mL CYP, 1 h
Chain of CYP 2C9 (P11712 whole entry): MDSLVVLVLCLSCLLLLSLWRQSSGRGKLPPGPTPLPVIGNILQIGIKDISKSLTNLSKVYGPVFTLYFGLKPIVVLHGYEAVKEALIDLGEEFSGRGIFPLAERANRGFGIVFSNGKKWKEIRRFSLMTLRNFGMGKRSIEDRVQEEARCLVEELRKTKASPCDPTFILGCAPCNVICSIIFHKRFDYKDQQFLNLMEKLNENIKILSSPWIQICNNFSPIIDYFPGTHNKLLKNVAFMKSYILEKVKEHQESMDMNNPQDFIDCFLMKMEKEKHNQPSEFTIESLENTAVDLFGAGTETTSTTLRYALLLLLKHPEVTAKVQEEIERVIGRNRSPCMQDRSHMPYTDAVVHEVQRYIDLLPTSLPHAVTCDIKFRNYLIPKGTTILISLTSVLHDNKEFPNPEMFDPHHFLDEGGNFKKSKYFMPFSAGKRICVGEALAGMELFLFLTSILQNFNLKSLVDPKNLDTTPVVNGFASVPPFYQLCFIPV
Experimental: as §1

Structure (SMILES): CNCC[C@H](Oc1cccc2c1OCO2)c1cccs1 [ammoxetine]
- fraction unbound at 1 h, 50 ng/mL ([1]; 50 ng/mL, read-out: Percentage of ammoxetine-protein binding rate (%) (converted)): 0.464
- fraction unbound at 1 h, 150 ng/mL ([1]; 150 ng/mL, read-out: Percentage of ammoxetine-protein binding rate (%) (converted)): 0.468
- fraction unbound at 1 h, 450 ng/mL ([1]; 450 ng/mL, read-out: Percentage of ammoxetine-protein binding rate (%) (converted)): 0.423
- fraction unbound at 1 h ([1]; approximate range over 50-450 ng/mL, read-out: PPB rate): 0.4 to 0.5
- Transformation ratio% (CYP 1A2): 14.04±2.29%
- residuary concentration of ammoxetine, Mean±SD (CYP 1A2): 5.89±0.16
- Stability in dog plasma, Accuracy/% ([2]; 5 ng/mL, 0d (-30℃)): 91.60±7.22%
- Stability in dog plasma, Accuracy/% ([2]; 5 ng/mL, 15d (-30℃)): 97.58±13.78%
- Stability in dog plasma, Accuracy/% ([2]; 5 ng/mL, 25d (-30℃)): 97.61±9.77%
- Stability in dog plasma, Accuracy/% ([2]; 5 ng/mL, in auto-sampler for 24h): 96.64±4.72%
- Stability in dog plasma, Accuracy/% ([2]; 5 ng/mL, repeated freezing and thawing for 3 times): 96.59±4.01%
- Stability in dog plasma, Accuracy/% ([2]; 5 ng/mL, room temperature for 4h): 99.00±11.24%
- Stability in dog plasma, Accuracy/% ([2]; 100 ng/mL, 0d (-30℃)): 100.10 ±1.62%
- Stability in dog plasma, Accuracy/% ([2]; 100 ng/mL, 15d (-30℃)): 98.63±4.19%
- Stability in dog plasma, Accuracy/% ([2]; 100 ng/mL, 25d (-30℃)): 101.68 ±6.57%
- Stability in dog plasma, Accuracy/% ([2]; 100 ng/mL, in auto-sampler for 24h): 99.51±7.50%
- Stability in dog plasma, Accuracy/% ([2]; 100 ng/mL, repeated freezing and thawing for 3 times): 98.25±6.55%
- Stability in dog plasma, Accuracy/% ([2]; 100 ng/mL, room temperature for 4h): 101.87 ±8.27%
- Stability in dog plasma, Accuracy/% ([2]; 1200 ng/mL, 0d (-30℃)): 92.06±3.06%
- Stability in dog plasma, Accuracy/% ([2]; 1200 ng/mL, 15d (-30℃)): 92.48±4.64%
- Stability in dog plasma, Accuracy/% ([2]; 1200 ng/mL, 25d (-30℃)): 93.96±3.46%
- Stability in dog plasma, Accuracy/% ([2]; 1200 ng/mL, in auto-sampler for 24h): 92.32±4.25%
- Stability in dog plasma, Accuracy/% ([2]; 1200 ng/mL, repeated freezing and thawing for 3 times): 92.01±6.32%
- Stability in dog plasma, Accuracy/% ([2]; 1200 ng/mL, room temperature for 4 h): 93.89±4.32%
- Transformation ratio% (CYP 2C9): 13.02±7.14%
- residuary concentration of ammoxetine, Mean±SD (CYP 2C9): 5.96±0.49
